Laboratory results reported in PubChem BioAssay AID1259407 (Chemical Carcinogenesis Research Information System (CCRIS), 2018).
Calls of active or inactive are those of the source. How the calls were made is not given here.

Test system: CCRIS mutagenicity, Ames/micronucleus/aberration tests
Assay: CCRIS mutagenicity studies
[1] = Test System: AMES SALMONELLA TYPHIMURIUM, Strain/Indicator: TA100, Metabolic Activation: NONE, Method: STANDARD PLATE

O=C1c2ccccc2C(=O)c2cc(CO)ccc21
mutagenic call (Test System: AMES SALMONELLA TYPHIMURIUM, Strain/Indicator: TA98, Metabolic Activation: NONE, Method: PREINCUBATION): inactive; negative | mutagenic call (Test System: AMES SALMONELLA TYPHIMURIUM, Strain/Indicator: TA98, Metabolic Activation: RAT, LIVER, S-9, PCB, Method: PREINCUBATION): inactive; negative | mutagenic call (Test System: AMES SALMONELLA TYPHIMURIUM, Strain/Indicator: TA100, Metabolic Activation: NONE, Method: PREINCUBATION): inactive; negative | mutagenic call (Test System: AMES SALMONELLA TYPHIMURIUM, Strain/Indicator: TA100, Metabolic Activation: RAT, LIVER, S-9, PCB, Method: PREINCUBATION): inactive; negative | mutagenic call (Test System: UDS RODENT HEPATOCYTES, Strain/Indicator: THY INCORP (NON-S-PHASE), Metabolic Activation: NONE, Method: AUTORADIOGRAPHY): inactive; negative | mutagenic call (Test System: UDS RODENT HEPATOCYTES, Strain/Indicator: THY INCORP (NON-S-PHASE), Metabolic Activation: PHENOBARBITAL, Method: AUTORADIOGRAPHY): active; positive

CC(=O)ON(OCc1ccc(C)cc1)C(=O)c1ccccc1
mutagenic call [1]: active; positive | mutagenic call (Test System: AMES SALMONELLA TYPHIMURIUM, Strain/Indicator: TA100, Metabolic Activation: RAT, S-9, AROCLOR, Method: STANDARD PLATE): active; positive

C/C=C/C1=CC(=O)[C@]23C[C@H]2C(C)(C)O[C@]3(O)C1=O
mutagenic call (Test System: AMES SALMONELLA TYPHIMURIUM, Strain/Indicator: TA97, Metabolic Activation: NONE): active; positive | mutagenic call (Test System: AMES SALMONELLA TYPHIMURIUM, Strain/Indicator: TA98, Metabolic Activation: NONE): inactive; negative | mutagenic call (Test System: AMES SALMONELLA TYPHIMURIUM, Strain/Indicator: TA100, Metabolic Activation: NONE): active; positive | mutagenic call (Test System: AMES SALMONELLA TYPHIMURIUM, Strain/Indicator: TA102, Metabolic Activation: NONE): active; positive

O=c1c(-c2ccc(O)cc2)coc2cc(O)cc(O)c12
mutagenic call (End Point: IN VITRO CHROMOSOMAL ABERRATIONS, Test System: HUMAN PERIPHERAL LYMPHOCYTES, Metabolic Activation: NONE): active; positive (structural changes) | mutagenic call (End Point: IN VITRO MICRONUCLEUS, Test System: CHINESE HAMSTER V79 CELLS, Metabolic Activation: NONE): active; positive | mutagenic call (End Point: IN VITRO MICRONUCLEUS, Test System: MOUSE LYMPHOMA L5178Y CELLS, Metabolic Activation: NONE): active; positive | mutagenic call (End Point: IN VIVO CHROMOSOMAL ABERRATIONS, Test System: MAMMARY GLAND CELLS, USING DUAL PROBE FISH, Species: RAT, Strain/Sex: SPRAGUE-DAWLEY/FEMALE, Route: DIET): inactive; negative | mutagenic call (End Point: IN VIVO MICRONUCLEUS, Test System: MAMMARY GLAND CELLS, Species: RAT, Strain/Sex: SPRAGUE-DAWLEY/FEMALE, Route: DIET): inactive; negative | mutagenic call (End Point: MORPHOLOGICAL TRANSFORMATION, Test System: SYRIAN HAMSTER EMBRYO CELLS (SHE), Metabolic Activation: NONE): inactive; negative | mutagenic call (Test System: CHINESE HAMSTER V-79, Strain/Indicator: V-79 (HPRT)/6-THIOGUANINE, Metabolic Activation: NONE): active; positive | mutagenic call (Test System: MOUSE LYMPHOMA, Strain/Indicator: L5178Y TK+/-, Metabolic Activation: NONE): active; positive (above 90 umol/l) | mutagenic call (Test System: MOUSE LYMPHOMA, Strain/Indicator: L5178Y TK+/-, Metabolic Activation: S-9): active; positive | mutagenic call (Test System: SYRIAN HAMSTER EMBRYO CELLS, Strain/Indicator: HPRT/6-THIOGUANINE, Metabolic Activation: NONE, Method: PLATE): active; positive

O=c1ccc2cc(O[C@@H]3O[C@H](CO)[C@@H](O)[C@H](O)[C@H]3O)c(O)cc2o1
mutagenic call (Test System: AMES SALMONELLA TYPHIMURIUM, Strain/Indicator: TA92, Metabolic Activation: NONE, Method: SPOT TEST): inactive; negative | mutagenic call (Test System: AMES SALMONELLA TYPHIMURIUM, Strain/Indicator: TA92, Metabolic Activation: RAT, LIVER, S-9, AROCLOR 1254, Method: SPOT TEST): inactive; negative | mutagenic call (Test System: AMES SALMONELLA TYPHIMURIUM, Strain/Indicator: TA94, Metabolic Activation: NONE, Method: SPOT TEST): inactive; negative | mutagenic call (Test System: AMES SALMONELLA TYPHIMURIUM, Strain/Indicator: TA94, Metabolic Activation: RAT, LIVER, S-9, AROCLOR 1254, Method: SPOT TEST): inactive; negative | mutagenic call (Test System: AMES SALMONELLA TYPHIMURIUM, Strain/Indicator: TA97, Metabolic Activation: NONE, Method: SPOT TEST): inactive; negative | mutagenic call (Test System: AMES SALMONELLA TYPHIMURIUM, Strain/Indicator: TA97, Metabolic Activation: RAT, LIVER, S-9, AROCLOR 1254, Method: SPOT TEST): inactive; negative | mutagenic call (Test System: AMES SALMONELLA TYPHIMURIUM, Strain/Indicator: TA98, Metabolic Activation: NONE, Method: SPOT TEST): inactive; negative | mutagenic call (Test System: AMES SALMONELLA TYPHIMURIUM, Strain/Indicator: TA98, Metabolic Activation: RAT, LIVER, S-9, AROCLOR 1254, Method: SPOT TEST): inactive; negative | mutagenic call (Test System: AMES SALMONELLA TYPHIMURIUM, Strain/Indicator: TA100, Metabolic Activation: NONE, Method: SPOT TEST): inactive; negative | mutagenic call (Test System: AMES SALMONELLA TYPHIMURIUM, Strain/Indicator: TA100, Metabolic Activation: RAT, LIVER, S-9, AROCLOR 1254, Method: SPOT TEST): inactive; negative | mutagenic call (Test System: AMES SALMONELLA TYPHIMURIUM, Strain/Indicator: TA102, Metabolic Activation: NONE, Method: SPOT TEST): inactive; negative | mutagenic call (Test System: AMES SALMONELLA TYPHIMURIUM, Strain/Indicator: TA102, Metabolic Activation: RAT, LIVER, S-9, AROCLOR 1254, Method: SPOT TEST): inactive; negative

C[C@]12CC[C@@H]3c4ccc(O)cc4CC[C@H]3[C@@H]1CCC2=O
mutagenic call (End Point: IN VITRO CHROMOSOMAL ABERRATIONS, Test System: CHO CELLS, Metabolic Activation: NONE): active; positive | mutagenic call (End Point: IN VITRO MICRONUCLEUS, Test System: MCF-7 (HUMAN MAMMARY CARCINOMA), Metabolic Activation: NONE): active; positive | mutagenic call (Test System: UDS RAT HEPATOCYTES, Strain/Indicator: THY INCORP (18-20 HR), Metabolic Activation: NONE, Method: LIQUID SCINTILLATION COUNTING): inactive; negative

CCCC[C@@H](C)[C@@H](OC(=O)C[C@@H](CC(=O)O)C(=O)O)[C@H](C[C@@H](C)CCCCCC[C@@H](O)C[C@H](O)[C@H](C)N)OC(=O)C[C@@H](CC(=O)O)C(=O)O
mutagenic call (Test System: AMES SALMONELLA TYPHIMURIUM, Strain/Indicator: TA97A, Metabolic Activation: NONE, Method: STANDARD PLATE): inactive; negative | mutagenic call (Test System: AMES SALMONELLA TYPHIMURIUM, Strain/Indicator: TA97A, Metabolic Activation: RAT, LIVER, S-9, AROCLOR 1254, Method: STANDARD PLATE): inactive; negative | mutagenic call (Test System: AMES SALMONELLA TYPHIMURIUM, Strain/Indicator: TA98, Metabolic Activation: NONE, Method: STANDARD PLATE): inactive; negative | mutagenic call (Test System: AMES SALMONELLA TYPHIMURIUM, Strain/Indicator: TA98, Metabolic Activation: RAT, LIVER, S-9, AROCLOR 1254, Method: STANDARD PLATE): inactive; negative | mutagenic call [1]: inactive; negative | mutagenic call (Test System: AMES SALMONELLA TYPHIMURIUM, Strain/Indicator: TA100, Metabolic Activation: RAT, LIVER, S-9, AROCLOR 1254, Method: STANDARD PLATE): inactive; negative | mutagenic call (Test System: AMES SALMONELLA TYPHIMURIUM, Strain/Indicator: TA102, Metabolic Activation: NONE, Method: STANDARD PLATE): inactive; negative | mutagenic call (Test System: AMES SALMONELLA TYPHIMURIUM, Strain/Indicator: TA102, Metabolic Activation: RAT, LIVER, S-9, AROCLOR 1254, Method: STANDARD PLATE): inactive; negative

CNc1ccc(Nc2c3ccccc3nc3ccccc23)cc1
mutagenic call (Test System: AMES SALMONELLA TYPHIMURIUM, Strain/Indicator: TA1537, Metabolic Activation: NONE, Method: STANDARD PLATE): active; positive
